Results reported in patent US10844052B2, “LLS compounds for treatment of cancer” (THE REGENTS OF THE UNIVERSITY OF CALIFORNIA, priority 2016, dated 2020).

How the values were obtained:
[1] = system: SKOV3; test: Anti-cancer activity against ovarian cancer cells SKOV3 (cell killing in solution / in vitro cell proliferation); type: cell-based; conditions: Homo sapiens, SK-OV-3, ovarian cancer cells SKOV3
Description: Biotinylated LLS2 was synthesized in solution and loaded it onto a streptavidin-coated plate. The biotinylated LLS2 immobilized on the plate killed approximately 21% of SKOV3 ovarian cancer cells at 100 μM loading, 16% at 50 μM and 14% at 25 μM (FIG. 4). The killing effect of the LLS2 compound was also tested in solution. […] In addition, LLS2 can kill pancreatic cancer cell line XPA3, prostate cancer cell line PC3, colon cancer cell line HT29, breast cancer cell line MCF7 and lung cancer cell line A549 (FIG. 4).

[2] = system: 22RV1 prostate cancer cells; test: Cell viability of prostate cancer 22RV1 cells after 72 hours treatment; type: cell-based; conditions: Homo sapiens

SMILES	IC50 [1] [µM]	further results
CC(=O)OCCN(CCOC(C)=O)c1ccc(-c2nc3cc(C(CC(N)=O)NC(=O)[C@@H](N)Cc4ccc(Cl)c(Cl)c4)ccc3n2CC23CC4CC(CC(C4)C2)C3)cc1 (stereo partly drawn) [LLS6, ((4-(1-(((1s,3R)-adamantan-1-yl)methyl)-5-(3-amino-1-((S)-2-amino-3-(3,4-dichlorophenyl)propanamido)-3-oxopropyl)-1H-benzo[d]imidazol-2-yl)phenyl)azanediyl)bis(ethane-2,1-diyl) Diacetate]	7.8	
CC(=O)OCCN(CCOC(C)=O)c1ccc(-c2nc3cc(C(CC(N)=O)NCc4ccc(Cl)c(Cl)c4)ccc3n2Cc2ccc(F)c(F)c2)cc1 (centres unmarked) [LLS17, ((4-(5-(3-amino-1-((3,4-dichlorobenzyl)amino)-3-oxopropyl)-1-(3,4-difluorobenzyl)-1H-benzo[d]imidazol-2-yl)phenyl)azanediyl)bis(ethane-2,1-diyl) Diacetate]	10.6	
CC(=O)OCCN(CCOC(C)=O)c1ccc(-c2nc3cc(C(N)CC(N)=O)ccc3n2Cc2ccc(C(F)(F)F)c(F)c2)cc1 (centres unmarked) [LLS22, ((4-(5-(1,3-diamino-3-oxopropyl)-1-(3-fluoro-4-(trifluoromethyl)benzyl)-1H-benzo[d]imidazol-2-yl)phenyl)azanediyl)bis(ethane-2,1-diyl) Diacetate]	> 50	
NC(=O)CC(NCc1ccc(Cl)c(Cl)c1)c1ccc2c(c1)nc(-c1ccc(N(CCO)CCO)cc1)n2CC12CC3CC(CC(C3)C1)C2 (centres unmarked) [LLS28, 3-(1-(((1s,3s)-adamantan-1-yl)methyl)-2-(4-(bis(2-hydroxyethyl)amino)phenyl)-1H-benzo[d]imidazol-5-yl)-3-((3,4-dichlorobenzyl)amino)propanamide]	16.1	
NC(=O)CC(NCc1ccc(N(CCO)CCO)cc1)c1ccc2c(c1)nc(-c1ccc(N(CCO)CCO)cc1)n2Cc1ccc(Cl)c(Cl)c1 (centres unmarked) [LLS38, 3-((4-(bis(2-hydroxyethyl)amino)benzyl)amino)-3-(2-(4-(bis(2-hydroxyethyl)amino)phenyl)-1-(3,4-dichlorobenzyl)-1H-benzo[d]imidazol-5-yl)propanamide]	> 50	
CC(=O)OCCN(CCO)c1ccc(-c2nc3cc(C(CC(N)=O)NCc4ccc(Cl)c(Cl)c4)ccc3n2Cc2ccc(Cl)c(Cl)c2)cc1 (centres unmarked) [LLS33, 2-((4-(5-(3-amino-1-((3,4-dichlorobenzyl)amino)-3-oxopropyl)-1-(3,4-dichlorobenzyl)-1H-benzo[d]imidazol-2-yl)phenyl)(2-hydroxyethyl)amino)ethyl Acetate]	10	
CC(=O)OCCN(CCOC(C)=O)c1ccc(-c2nc3cc(C(CC(N)=O)NC(=O)[C@@H](N)Cc4ccc(F)c(F)c4)ccc3n2Cc2ccc(OC(F)(F)F)cc2)cc1 (stereo partly drawn) [LLS9, ((4-(5-(3-amino-1-((S)-2-amino-3-(3,4-difluorophenyl)propanamido)-3-oxopropyl)-1-(4-(trifluoromethoxy)benzyl)-1H-benzo[d]imidazol-2-yl)phenyl)azanediyl)bis(ethane-2,1-diyl) Diacetate]	17.6	
COc1ccc(C[C@@H](N)C(=O)NC(CC(N)=O)c2ccc3c(c2)nc(-c2cccc(Cn4ccnc4)c2)n3CCc2ccccn2)cc1 (stereo partly drawn) [LLS1, (2R)—N-(1-(2-(3-((1H-imidazol-1-yl)methyl)phenyl)-1-(2-(pyridin-2-yl)ethyl)-1H-benzo[d]imidazol-5-yl)-3-amino-3-oxopropyl)-2-amino-3-(4-methoxyphenyl)propanamide]	29.5	
CCCC[C@H](N)C(=O)NC(CC(N)=O)c1ccc2c(c1)nc(-c1nccs1)n2CCN1CCCCC1 (stereo partly drawn) [LLS4, (2S)-2-amino-N-(3-amino-3-oxo-1-(1-(2-(piperidin-1-yl)ethyl)-2-(thiazol-2-yl)-1H-benzo[d]imidazol-5-yl)propyl)hexanamide]	> 50	
CC(=O)OCCN(CCOC(C)=O)c1ccc(-c2nc3cc(C(CC(N)=O)NC(=O)[C@@H](N)[C@H](C)O)ccc3n2Cc2ccc(F)c(F)c2)cc1 (stereo partly drawn) [LLS3, ((4-(5-(3-amino-1-((2S,3S)-2-amino-3-hydroxybutanamido)-3-oxopropyl)-1-(3,4-difluorobenzyl)-1H-benzo[d]imidazol-2-yl)phenyl)azanediyl)bis(ethane-2,1-diyl) Diacetate]	37.6	
CC(=O)OCCN(CCOC(C)=O)c1ccc(-c2nc3cc(C(CC(N)=O)NC(=O)Nc4ccc(C(F)(F)F)c(Cl)c4)ccc3n2Cc2ccc(F)c(F)c2)cc1 (centres unmarked) [LLS15, ((4-(5-(3-amino-1-(3-(3-chloro-4-(trifluoromethyl)phenyl)ureido)-3-oxopropyl)-1-(3,4-difluorobenzyl)-1H-benzo[d]imidazol-2-yl)phenyl)azanediyl)bis(ethane-2,1-diyl) Diacetate]	> 50	
NC(=O)CC(NC(=O)[C@@H](N)Cc1ccc(Cl)c(Cl)c1)c1ccc2c(c1)nc(-c1ccc(N(CCO)CCO)cc1)n2Cc1cc(F)ccc1F (stereo partly drawn) [LLS13, (2S)-2-amino-N-(3-amino-1-(2-(4-(bis(2-hydroxyethyl)amino)phenyl)-1-(2,5-difluorobenzyl)-1H-benzo[d]imidazol-5-yl)-3-oxopropyl)-3-(3,4-dichlorophenyl)propanamide]	> 50	
CC(=O)OCCN(CCOC(C)=O)c1ccc(-c2nc3cc(C(CC(N)=O)NCc4ccc(Cl)c(Cl)c4)ccc3n2Cc2ccc(OC(F)(F)F)cc2)cc1 (centres unmarked) [LLS23, ((4-(5-(3-amino-1-((3,4-dichlorobenzyl)amino)-3-oxopropyl)-1-(4-(trifluoromethoxy)benzyl)-1H-benzo[d]imidazol-2-yl)phenyl)azanediyl)bis(ethane-2,1-diyl) Diacetate]	8.4	
CC(=O)OCCN(CCOC(C)=O)c1ccc(-c2nc3cc(C(CC(N)=O)NCc4ccc(Cl)c(Cl)c4)ccc3n2Cc2ccc(F)c(Cl)c2)cc1 (centres unmarked) [LLS21, ((4-(5-(3-amino-1-((3,4-dichlorobenzyl)amino)-3-oxopropyl)-1-(3-chloro-4-fluorobenzyl)-1H-benzo[d]imidazol-2-yl)phenyl)azanediyl)bis(ethane-2,1-diyl) Diacetate]	8.9	
NC(=O)CC(NCc1c(Cl)cccc1Cl)c1ccc2c(c1)nc(-c1ccc(N(CCO)CCO)cc1)n2Cc1ccc(F)c(F)c1 (centres unmarked) [LLS14, 3-(2-(4-(bis(2-hydroxyethyl)amino)phenyl)-1-(3,4-difluorobenzyl)-1H-benzo[d]imidazol-5-yl)-3-((2,6-dichlorobenzyl)amino)propanamide]	29.2	
CC(=O)OCCN(CCOC(C)=O)c1ccc(-c2nc3cc(C(CC(N)=O)NCc4ccc(Cl)c(Cl)c4)ccc3n2CC23CC4CC(CC(C4)C2)C3)cc1 (centres unmarked) [LLS26, ((4-(1-(((1s,3s)-adamantan-1-yl)methyl)-5-(3-amino-1-((3,4-dichlorobenzyl)amino)-3-oxopropyl)-1H-benzo[d]imidazol-2-yl)phenyl)azanediyl)bis(ethane-2,1-diyl) Diacetate]	10.5	
CC(=O)OCCN(CCOC(C)=O)c1ccc(CNC(CC(N)=O)c2ccc3c(c2)nc(-c2ccc(N(CCOC(C)=O)CCOC(C)=O)cc2)n3Cc2ccc(Cl)c(Cl)c2)cc1 (centres unmarked) [LLS37, ((4-(5-(3-amino-1-((4-(bis(2-acetoxyethyl)amino)benzyl)amino)-3-oxopropyl)-1-(3,4-dichlorobenzyl)-1H-benzo[d]imidazol-2-yl)phenyl)azanediyl)bis(ethane-2,1-diyl) Diacetate]	> 50	
NC(=O)CC(NC(=O)[C@@H](N)Cc1ccc(Cl)c(Cl)c1)c1ccc2c(c1)nc(-c1ccc(N(CCO)CCO)cc1)n2Cc1ccc(F)c(F)c1 (stereo partly drawn) [LLS12, (2S)-2-amino-N-(3-amino-1-(2-(4-(bis(2-hydroxyethyl)amino)phenyl)-1-(3,4-difluorobenzyl)-1H-benzo[d]imidazol-5-yl)-3-oxopropyl)-3-(3,4-dichlorophenyl)propanamide]	> 50	
NC(=O)CC(NCc1ccc(Cl)c(Cl)c1)c1ccc2c(c1)nc(-c1ccc(N3CCOCC3)cc1)n2Cc1ccc(OC(F)(F)F)cc1 (centres unmarked) [LLS24, 3-((3,4-dichlorobenzyl)amino)-3-(2-(4-morpholinophenyl)-1-(4-(trifluoromethoxy)benzyl)-1H-benzo[d]imidazol-5-yl)propanamide]	40.1	
NC(=O)CC(NCc1ccc(Cl)c(Cl)c1)c1ccc2c(c1)nc(-c1ccc(N(CCO)CCO)cc1)n2Cc1ccc(F)c(F)c1 (centres unmarked) [LLS19, 3-(2-(4-(bis(2-hydroxyethyl)amino)phenyl)-1-(3,4-difluorobenzyl)-1H-benzo[d]imidazol-5-yl)-3-((3,4-dichlorobenzyl)amino)propanamide]	16.8	
NC(=O)CC(NCc1ccc(Cl)c(Cl)c1)c1ccc2c(c1)nc(-c1ccc(N(CCO)CCO)cc1)n2Cc1ccc(C(F)(F)F)c(F)c1 (centres unmarked) [LLS27, 3-(2-(4-(bis(2-hydroxyethyl)amino)phenyl)-1-(3-fluoro-4-(trifluoromethyl)benzyl)-1H-benzo[d]imidazol-5-yl)-3-((3,4-dichlorobenzyl)amino)propanamide]	> 50	
NC(=O)CC(NCc1ccc(Cl)c(Cl)c1)c1ccc2c(c1)nc(-c1ccc(-c3cccc(CO)n3)cc1)n2CC12CC3CC(CC(C3)C1)C2 (centres unmarked) [LLS7, 3-(1-(((1s,3s)-adamantan-1-yl)methyl)-2-(4-(6-(hydroxymethyl)pyridin-2-yl)phenyl)-1H-benzo[d]imidazol-5-yl)-3-((3,4-dichlorobenzyl)amino)propanamide]	> 50	
NC(=O)CC(c1ccc2c(c1)nc(-c1ccc(N(CCO)CCO)cc1)n2CC12CC3CC(CC(C3)C1)C2)N(Cc1ccc(Cl)c(Cl)c1)Cc1ccc(Cl)c(Cl)c1 (centres unmarked) [LLS29, 3-(1-(((1s,3s)-adamantan-1-yl)methyl)-2-(4-(bis(2-hydroxyethyl)amino)phenyl)-1H-benzo[d]imidazol-5-yl)-3-(bis(3,4-dichlorobenzyl)amino)propanamide]	25.5	
NC(=O)CC(NCc1ccc(Cl)c(Cl)c1)c1ccc2c(c1)nc(-c1ccc(N(CCO)CCO)cc1)n2Cc1ccc(Cl)c(C(F)(F)F)c1 (centres unmarked) [LLS97, 3-(2-(4-(bis(2-hydroxyethyl)amino)phenyl)-1-(4-chloro-3-(trifluoromethyl)benzyl)-1H-benzo[d]imidazol-5-yl)-3-((3,4-dichlorobenzyl)amino)propanamide]		viability at 2.5 µM ([2]; 2.5 μM): 23%; viability at 5 µM ([2]; 5 μM): 0%; viability at 10 µM ([2]; 10 μM): 0%
